These results are taken from ChEMBL document CHEMBL1130924, “Potent inhibition of protein-tyrosine phosphatase-1B using the phosphotyrosyl mimetic fluoro-O-malonyl tyrosine (FOMT)” (Bioorg Med Chem Lett, 1998).

For assay [1], the target named is T1, Tyrosine-protein phosphatase non-receptor type 1 (Homo sapiens, UniProt P18031).
T1 sequence (P18031 whole entry): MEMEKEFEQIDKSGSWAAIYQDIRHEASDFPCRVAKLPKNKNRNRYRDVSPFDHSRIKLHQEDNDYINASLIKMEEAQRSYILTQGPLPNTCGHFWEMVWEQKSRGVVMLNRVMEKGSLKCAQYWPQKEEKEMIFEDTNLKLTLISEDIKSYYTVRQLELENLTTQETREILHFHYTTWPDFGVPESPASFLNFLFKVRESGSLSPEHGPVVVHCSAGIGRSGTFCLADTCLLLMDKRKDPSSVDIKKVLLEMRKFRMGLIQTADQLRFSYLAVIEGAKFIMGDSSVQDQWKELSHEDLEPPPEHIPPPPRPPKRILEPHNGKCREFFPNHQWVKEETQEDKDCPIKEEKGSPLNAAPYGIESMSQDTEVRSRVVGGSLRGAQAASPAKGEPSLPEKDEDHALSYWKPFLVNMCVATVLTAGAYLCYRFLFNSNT
The assay can be described thus: Compound was evaluated for the binding affinity against protein-tyrosine phosphatase 1B (PTP1B).

In assay [2] the target is T1, Tyrosine-protein phosphatase non-receptor type 1. The assay is described as follows: Compound concentration that cause 50% inhibition of protein-tyrosine phosphatase 1B (PTP1B).

Peptide text beside a SMILES is read from it. * marks the point of attachment. X1 = O=C(O)C(C(=O)O)*

In general, Ki refers to a dissociation constant, usually derived from enzyme kinetics or from competition with a known ligand. High values mean weaker binding, low ones tighter binding. For orientation: IC50 means the concentration that gives 50% inhibition.

In assay [1], `CC(C)C[C@@H]1NC(=O)[C@H](Cc2ccc(OC(F)(C(=O)O)C(=O)O)cc2)NC(=O)[C@@H](CCC(=O)O)NC(=O)[C@H](CC(=O)O)NC(=O)[C@@H](C)NC(=O)[C@H](CC(=O)O)NC(=O)CSCC(C(N)=O)NC1=O` (some centres undefined) came in with a Ki of 0.17 µM. Take `N[C@@H](Cc1ccc(OC(F)(C(=O)O)C(=O)O)cc1)C(=O)O` [FLUOROMALONYL TYROSINE]: the IC50 in assay [2] is 1 µM. The same measure, in the same setting: the value for `N[C@@H](Cc1ccc(OC(C(=O)O)C(=O)O)cc1)C(=O)O` was 10 µM. Turning to `CC(=O)N[C@@H](CC(=O)O)C(=O)N[C@@H](C)C(=O)N[C@@H](CC(=O)O)C(=O)N[C@@H](CCC(=O)O)C(=O)N[C@@H](Cc1ccc(OC(C(=O)O)C(=O)O)cc1)C(=O)N[C@@H](CC(C)C)C(N)=O` (Ac-DADEY(X1)L-NH2), the affinity in assay [1], expressed as Ki, was 13 µM.
